Experimental findings from patent publication US12648926B2, “Dietary supplement comprising aldehyde functional monoterpenoids” (priority 2020, dated 2026) are described below.

“And” between values parts separate entries of the source, which are not always exact repeats. Identical values can stand only once. Like-named read-outs stand apart in the source and are kept apart here.

Series [1] relates to EpiAirway™ (AIR-100) tissues. As to conditions: for TEER Significant?: alpha 0.05.
In series [2] the test system is EpiAirway™ (AIR-100) tissues.
The subject of series [3] is EpiAirway™ (AIR-100) tissues. As to conditions: H&E staining after 24-hour recovery.
Setting [4] is: post 24 hr recovery: Untreated Control vs treatment.
The mark [5] stands for this setting: pre exposure vs post 24 hr recovery, same treatment.

In the case of Triton X-100 [0.5% Triton], the “Effect on barrier function / TEER” value in series [1] (24-hour recovery) was “dropped completely”. For the same substance, in series [1] (group mean n=3 tissues, after 24-hour recovery), the “24 hr TEER Mean” value came out at 8.6 Ohms*cm2. Besides, the “Pre-Exposure TEER Mean” value in series [1] (group mean n=3 tissues, before exposure) amounted to 749.8 Ohms*cm2. Further, the “24 hr TEER Ohms*cm2” value in series [1] (per tissue, after 24-hour recovery) was 9.0 Ohms*cm2 and 8.4 Ohms*cm2. Further, the “Pre-Exposure TEER Ohms*cm2” value in series [1] (per tissue, before exposure) is 672.0 Ohms*cm2 and 832.8 Ohms*cm2 and 744.6 Ohms*cm2. Moreover, in series [1] (setting [4]), the “TEER Mean Diff., Tukey's multiple comparisons test” value amounted to 628.6 and the “TEER Significant?” value is listed as “Yes”. Besides, in series [1] (setting [5]), the “TEER Mean Diff., Tukey's multiple comparisons test” value is 741.2 and the “TEER Significant?” value was “Yes”. In series [1] (pre exposure, N=3), the “TEER statistics test details: group mean, pre exposure” value is listed as 749.8. Further, in series [1] (raw reading per tissue after 24-hour recovery, background 5 not subtracted), the “24 hr TEER” value is 20 and 19. Also, the “Pre-Exposure TEER” value in series [1] (raw reading per tissue before exposure, background 5 not subtracted) was 1125 and 1393 and 1246. For the same substance, in series [2] (LDH assay, 24-hour time point), the “Effect on tissue viability” value is “complete loss of viability”. Further, the “LDH viability Mean Diff., Tukey's multiple comparisons test” value in series [2] (Untreated Control vs treatment) is 100. In series [2] (Untreated Control vs treatment, alpha 0.05), the “LDH viability Significant?” value is listed as “Yes”. In series [2] (group mean n=3 tissues, 24-hour time point), the “LDH Group Mean OD” value is 1.125. In addition, in series [2] (group mean n=3 tissues, LDH assay, 24-hour time point), the “% Viability Mean” value was determined as 0.0%. For the same substance, the “LDH Mean OD” value in series [2] (mean of duplicates per tissue, 24-hour time point) was 1.181 and 1.062 and 1.132. The “LDH statistics test details: group mean” value in series [2] (percent viability, 24-hour time point) was −0.01667. Besides, in series [3], the “Tissue morphology” value is “significant tissue disruption”.
